Test results reported in the supplement of paper PMC5908809.

Tests used:
[1] = system: normal NK cells expanded with K562-aAPC; assay: drug sensitivity score (DSS) (DSS units); higher = more sensitive; extreme values may be limits of the assay; conditions: 72 h; IL-2 2.5 ng/mL
Experimental: (§1)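 Drug sensitivity and resistance testing on K562-aAPC-expanded normal NK cells: 5 concentrations (10-fold steps over a 10,000-fold range), 72 h at 37 °C, viability by CellTiter-Glo normalised to DMSO and benzethonium chloride controls; DSS from the fitted curve.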

[2] = system: normal primary NK cells, pool 1 (3 donors), resting (IL-2 0 ng/mL); assay: percent inhibition of viability; higher = more inhibition; conditions: 72 h
[3] = system: normal primary NK cells, pool 1 (3 donors) (IL-2 2.5 ng/mL); assay: as above; conditions: 72 h
KAI3 (IL-2 2.5 ng/mL) [4] = assay: as above; conditions: 72 h
YT (IL-2 2.5 ng/mL) [5] = assay: as above; conditions: 72 h
NKL (IL-2 2.5 ng/mL) [6] = assay: as above; conditions: 72 h
NK-92 (IL-2 2.5 ng/mL) [7] = assay: as above; conditions: 72 h
DERL-7 (IL-2 2.5 ng/mL) [8] = assay: as above; conditions: 72 h
[9] = system: normal primary NK cells, pool 2 (3 donors) (IL-2 2.5 ng/mL); assay: as above; conditions: 72 h
[10] = system: normal primary NK cells, pool 3 (3 donors) (IL-2 2.5 ng/mL); assay: as above; conditions: 72 h
NK-YS (IL-2 2.5 ng/mL) [11] = assay: as above; conditions: 72 h
SNK-6 (IL-2 2.5 ng/mL) [12] = assay: as above; conditions: 72 h
KHYG-1 (IL-2 2.5 ng/mL) [13] = assay: as above; conditions: 72 h
IMC-1 (IL-2 20 ng/mL) [14] = assay: as above; conditions: 72 h
[15] = system: normal NK cells expanded with K562-aAPC; assay: as above; conditions: 72 h, IL-2 2.5 ng/mL
Experimental: as §1

[16] = system: normal primary NK cells, pool 1 (3 donors), resting (IL-2 0 ng/mL); assay: drug sensitivity score (DSS) (DSS units); higher = more sensitive; extreme values may be limits of the assay; conditions: 72 h
[17] = system: normal primary NK cells, pool 1 (3 donors) (IL-2 2.5 ng/mL); assay: as above; conditions: 72 h
KAI3 (IL-2 2.5 ng/mL) [18] = assay: as above; conditions: 72 h
YT (IL-2 2.5 ng/mL) [19] = assay: as above; conditions: 72 h
NKL (IL-2 2.5 ng/mL) [20] = assay: as above; conditions: 72 h
NK-92 (IL-2 2.5 ng/mL) [21] = assay: as above; conditions: 72 h
DERL-7 (IL-2 2.5 ng/mL) [22] = assay: as above; conditions: 72 h
[23] = system: normal primary NK cells, pool 2 (3 donors) (IL-2 2.5 ng/mL); assay: as above; conditions: 72 h
[24] = system: normal primary NK cells, pool 3 (3 donors) (IL-2 2.5 ng/mL); assay: as above; conditions: 72 h
NK-YS (IL-2 2.5 ng/mL) [25] = assay: as above; conditions: 72 h
SNK-6 (IL-2 2.5 ng/mL) [26] = assay: as above; conditions: 72 h
KHYG-1 (IL-2 2.5 ng/mL) [27] = assay: as above; conditions: 72 h
IMC-1 (IL-2 20 ng/mL) [28] = assay: as above; conditions: 72 h

COc1ccc(C2=N[C@@H](c3ccc(Cl)cc3)[C@@H](c3ccc(Cl)cc3)N2C(=O)N2CCNC(=O)C2)c(OC(C)C)c1 [Nutlin-3] (max concentration tested 10000 nM)
Conditions | drug sensitivity score
DERL-7 (IL-2 2.5 ng/mL) [22] | 9.5
IMC-1 (IL-2 20 ng/mL) [28] | 0.61
KAI3 (IL-2 2.5 ng/mL) [18] | 7.56
KHYG-1 (IL-2 2.5 ng/mL) [27] | 0.02
NK-92 (IL-2 2.5 ng/mL) [21] | 2.8
NK-YS (IL-2 2.5 ng/mL) [25] | 9.5
NKL (IL-2 2.5 ng/mL) [20] | 3.64
SNK-6 (IL-2 2.5 ng/mL) [26] | 10.1
YT (IL-2 2.5 ng/mL) [19] | 6.81
[1] | 8.63
[16] | 14.5
[17] | 9.16
[23] | 7.31
[24] | 4.75

percent inhibition of viability [%]
Conditions | 1 nM | 10 nM | 100 nM | 1000 nM | 10000 nM
DERL-7 (IL-2 2.5 ng/mL) [8] | 0.15 | 0.54 | 7.5 | 29 | 99.3
IMC-1 (IL-2 20 ng/mL) [14] | -5.54 | -4.03 | -1.5 | -1.01 | 21.2
KAI3 (IL-2 2.5 ng/mL) [4] | -3.27 | -5.08 | 7.55 | 34.8 | 60.6
KHYG-1 (IL-2 2.5 ng/mL) [13] | -6.71 | -9.4 | -3.85 | -2.52 | 12.2
NK-92 (IL-2 2.5 ng/mL) [7] | -20.5 | 0.59 | -14.7 | 13 | 28.5
NK-YS (IL-2 2.5 ng/mL) [11] | -2.06 | -4.19 | 0.64 | 37.4 | 83.9
NKL (IL-2 2.5 ng/mL) [6] | 3.59 | -3.19 | 6.18 | 9.61 | 42.5
SNK-6 (IL-2 2.5 ng/mL) [12] | -8.93 | -12 | -4.65 | 42.5 | 85.7
YT (IL-2 2.5 ng/mL) [5] | -1.48 | -2.54 | 1.47 | 19.9 | 69.5
[2] | -5.64 | 8.67 | 11.7 | 69 | 93.8
[3] | -5.38 | 6.43 | 9.32 | 29 | 96.8
[9] | -11.5 | 9.9 | 0.22 | 13.9 | 90
[10] | -6.84 | 5.45 | 0.48 | 4.02 | 75.6
[15] | -4.98 | 0.87 | 1.74 | 19.4 | 99.2

O=C(Cc1ccc(-c2ccc(OCCN3CCOCC3)cc2)cn1)NCc1ccccc1 [KX2-391] (max concentration tested 10000 nM)
Conditions | drug sensitivity score
DERL-7 (IL-2 2.5 ng/mL) [22] | 31.1
IMC-1 (IL-2 20 ng/mL) [28] | 30
KAI3 (IL-2 2.5 ng/mL) [18] | 23
KHYG-1 (IL-2 2.5 ng/mL) [27] | 30.7
NK-92 (IL-2 2.5 ng/mL) [21] | 34.8
NK-YS (IL-2 2.5 ng/mL) [25] | 25.4
NKL (IL-2 2.5 ng/mL) [20] | 30.1
SNK-6 (IL-2 2.5 ng/mL) [26] | 34.7
YT (IL-2 2.5 ng/mL) [19] | 32
[1] | 17.9
[16] | 2.04
[17] | 3.06
[23] | 1.59
[24] | 0

percent inhibition of viability [%]
Conditions | 1 nM | 10 nM | 100 nM | 1000 nM | 10000 nM
DERL-7 (IL-2 2.5 ng/mL) [8] | -1.42 | 5.02 | 99.3 | 99.9 | 98.9
IMC-1 (IL-2 20 ng/mL) [14] | -2.07 | -3.69 | 99.1 | 100 | 100
KAI3 (IL-2 2.5 ng/mL) [4] | -3.67 | 25.5 | 55.4 | 76.7 | 70.3
KHYG-1 (IL-2 2.5 ng/mL) [13] | -5.79 | 3.13 | 98.5 | 107 | 98.1
NK-92 (IL-2 2.5 ng/mL) [7] | 2.97 | 44 | 92.2 | 104 | 96.8
NK-YS (IL-2 2.5 ng/mL) [11] | -1.95 | 18.5 | 69.3 | 80.8 | 81.6
NKL (IL-2 2.5 ng/mL) [6] | -12.7 | 5.97 | 94.5 | 96.4 | 89
SNK-6 (IL-2 2.5 ng/mL) [12] | 27.9 | 54 | 79.7 | 91.6 | 95.2
YT (IL-2 2.5 ng/mL) [5] | -2.25 | 14.7 | 95.6 | 102 | 95.2
[2] | -13.2 | -19.8 | 7.03 | 7.66 | 29.1
[3] | -14.5 | -16.4 | 1.64 | 8.22 | 36.6
[9] | -6.2 | -11.1 | -5.76 | 6.08 | 22.6
[10] | -15.5 | -9.53 | -0.96 | 0.59 | 6.59
[15] | -2.89 | -0.99 | 57 | 55.9 | 57.5
